Data on 25 compounds can be found in US20250195521A1 (Revolution Medicines, Inc., priority 2020, published 2025).

The assay deals with NCI-H358 (K-Ras G12C). The assay can be described thus: CellTiter-Glo cell viability assay, NCI-H358. Type of assay: cell-based, human. The note with it: for pIC50: 5-day treatment, read-out: H358 Cell Viability assay data (K-Ras G12C, IC50). Here is the method: Determination of Cell Viability in RAS Mutant Cancer Cell Lines Protocol: CellTiter-Glo® Cell Viability Assay
Note—The following protocol describes a procedure for monitoring cell viability of K-Ras mutant cancer cell lines in response to a compound of the invention. Other RAS isoforms may be employed, though the number of cells to be seeded will vary based on cell line used.
Test compounds (132.5 nL) were directly dispensed into the assay plates containing cells. […] On day 5, assay plates and their contents were equilibrated to room temperature for approximately 30 minutes. […] Luminescence was measured using the PerkinElmer Enspire. Data were normalized by the following: (Sample signal/Avg. DMSO)*100. The data were fit using a four-parameter logistic fit.

pIC50: −log10 of the molar value. Read-outs that look alike come from different tables or passages of the source.

Regarding `C=CC(=O)N1CC[C@H](C(=O)N(C)[C@H](C(=O)N[C@H]2Cc3cc(O)cc(c3)-c3ccc4c(c3)c(c(-c3ccc(CN(C)C)nc3)n4CC)CC(C)(C)COC(=O)[C@@H]3CCCN(N3)C2=O)C(C)C)C1` [Compound A3], where the note is “Homo sapiens, NCI-H358, 120 h, read-out: H358 Cell Viability assay data (K-Ras G12C, IC50, uM), 5-day treatment”, the IC50 (commonly the concentration needed to halve the response being measured) lay within 0.1 to 1 µM. In the case of `C=CC(=O)N1CC[C@H](C(=O)N(C)[C@H](C(=O)N[C@H]2Cc3cc(OC(=O)CN)cc(c3)-c3ccc4c(c3)c(c(-c3c(CCOC)cccc3OC)n4CC)CC(C)(C)COC(=O)[C@@H]3CCCN(N3)C2=O)C(C)C)C1` [Compound A8], under “Homo sapiens, NCI-H358, 120 h”, the pIC50 (as a rule, the IC50 on a negative log10 scale, so that one unit is a factor of ten) was 6.00 to 7.00. `CCn1c(-c2cnccc2COC)c2c3cc(ccc31)-c1cc(O)cc(c1)C[C@H](NC(=O)[C@H](C(C)C)N(C)C(=O)[C@H]1CCN(C(=O)C3COC3)C1)C(=O)N1CCC[C@H](N1)C(=O)OCC(C)(C)C2` [Compound A9]: for the setting “Homo sapiens, NCI-H358, 120 h”, the pIC50 is 6.00 to 7.00.

Turning to `C=CC(=O)N1CC[C@H](C(=O)N(C)[C@H](C(=O)N[C@H]2Cc3cc(O)cc(c3)-c3ccc4c(c3)c(c(-c3ncccc3COC)n4CC)CC(C)(C)COC(=O)[C@@H]3CCCN(N3)C2=O)C(C)C)C1` [Compound A16], the pIC50 (Homo sapiens, NCI-H358, 120 h) was 7.00 to 8.00. On the same count and under the same terms, with `CCn1c(-c2cnccc2COC)c2c3cc(ccc31)-c1cc(O)cc(c1)C[C@H](NC(=O)[C@H](C(C)C)N(C)C(=O)[C@H]1CCN(C=O)C1)C(=O)N1CCC[C@H](N1)C(=O)OCC(C)(C)C2` [Compound A17, (2S)—N-[(8S,14S)-22-ethyl-4-hydroxy-21-[4-(methoxymethyl)pyridin-3-yl]-18,18-dimethyl-9,15-dioxo-16-oxa-10,22,28-triazapentacyclo [18.5.2.1^2,6.1^10,14.0^23,27]nonacosa-1 (26), 2,4,6 (29),20,23 (27),24-heptaen-8-yl]-2-{1-[(3S)-1-formylpyrrolidin-3-yl]-N-methylformamido}-3-methylbutanamide] the figure was 6.00 to 7.00; with `CCn1c(-c2cnccc2COC)c2c3cc(ccc31)-c1cc(O)cc(c1)C[C@H](NC(=O)[C@H](C(C)C)N(C)C(=O)[C@H]1CCN(C(=O)C(C)C)C1)C(=O)N1CCC[C@H](N1)C(=O)OCC(C)(C)C2` [Compound A29], 6.00 to 7.00. Consider `C=CC(=O)N1CC[C@H](C(=O)N(C)[C@H](C(=O)N[C@H]2Cc3cc(O)cc(c3)-c3ccc4c(c3)c(c(-c3ccc(C5CCN(C)CC5)cc3)n4CC)CC(C)(C)COC(=O)[C@@H]3CCCN(N3)C2=O)C(C)C)C1` [Compound A39], for which the negative logarithm of the IC50 (pIC50) (Homo sapiens, NCI-H358, 120 h) was 7.00 to 8.00.

Turning to `C=CC(=O)N1CC[C@H](C(=O)N(C)[C@H](C(=O)N[C@H]2Cc3cc(O)cc(c3)-c3ccc4c(c3)c(c(-c3ccc5c(c3)CCN(C)C5)n4CC)CC(C)(C)COC(=O)[C@@H]3CCCN(N3)C2=O)C(C)C)C1` [Compound A40], the pIC50 (Homo sapiens, NCI-H358, 120 h) is 7.00 to 8.00. In the case of `CCn1c(-c2ccccc2CN(C)C)c2c3cc(ccc31)-c1cc(O)cc(c1)C[C@H](NC(=O)[C@H](C(C)C)N(C)C(=O)c1ccc(NC(=O)/C=C/CN(C)C)cn1)C(=O)N1CCC[C@H](N1)C(=O)OCC(C)(C)C2` [Compound A46], the pIC50 (Homo sapiens, NCI-H358, 120 h) is under 5.00. In the case of `CCn1c(-c2cnccc2COC)c2c3cc(ccc31)-c1cc(O)cc(c1)C[C@H](NC(=O)[C@@H](OC(=O)N(C)C)C(C)C)C(=O)N1CCC[C@H](N1)C(=O)OCC(C)(C)C2` [Compound A53], the pIC50 (Homo sapiens, NCI-H358, 120 h) is 6.00 to 7.00.

For the compound `C=CC(=O)N1CC[C@H](C(=O)N(C)[C@H](C(=O)N[C@H]2Cc3cc(O)cc(c3)-c3ccc4c(c3)c(c(-c3cncnc3)n4CC)CC(C)(C)COC(=O)[C@@H]3CCCN(N3)C2=O)C(C)C)C1` [Compound A61], the pIC50 (Homo sapiens, NCI-H358, 120 h) is 7.00 to 8.00. `C=CC(=O)N1CC[C@@]2(CCCN([C@H](C(=O)N[C@H]3Cc4cc(O)cc(c4)-c4ccc5c(c4)c(c(-c4ccccc4CCOC)n5CC)CC(C)(C)COC(=O)[C@@H]4CCCN(N4)C3=O)C(C)C)C2=O)C1` [Compound A63]: the pIC50 (Homo sapiens, NCI-H358, 120 h) is 6.00 to 7.00.

Turning to `CCn1c(-c2cccnc2COC)c2c3cc(ccc31)-c1cc(O)cc(c1)C[C@H](NC(=O)[C@H](C(C)C)N(C)C(=O)[C@H]1CCN(C(=O)/C=C/CN3CCN(C)CC3)C1)C(=O)N1CCC[C@H](N1)C(=O)OCC(C)(C)C2` [Compound A72], the pIC50 (Homo sapiens, NCI-H358, 120 h) was under 5.00. In the case of `C=CC(=O)N1CC[C@H](C(=O)N(C)[C@H](C(=O)N[C@H]2Cc3cc(O)cc(c3)-c3ccc4c(c3)c(c(-c3cccnc3)n4C(C)(C)C#N)CC(C)(C)COC(=O)[C@@H]3CCCN(N3)C2=O)C(C)C)C1` [Compound A74], the pIC50 was 7.00 to 8.00.

Consider `C=CC(=O)N1CC[C@H](C(=O)N(C)[C@H](C(=O)N[C@H]2Cc3cc(O)cc(c3)-c3ccc4c(c3)c(c(-c3cnccc3[C@H](C)OC)n4CC)CC(C)(C)COC(=O)[C@@H]3CCCN(N3)C2=O)C(C)C)C1` [Compound A76], for which the pIC50 (Homo sapiens, NCI-H358, 120 h) is over 8.00. As for `CCn1c(-c2ccccc2COC)c2c3cc(ccc31)-c1cc(O)cc(c1)C[C@H](NC(=O)[C@H](C(C)C)N(C)C(=O)[C@H]1CCN(C(=O)/C=C/CN(C)C)C1)C(=O)N1CCC[C@H](N1)C(=O)OCC(C)(C)C2` [Compound A79], the pIC50 (Homo sapiens, NCI-H358, 120 h) is 7.00 to 8.00. Regarding `CCn1c(-c2cnccc2COC)c2c3cc(ccc31)-c1cc(O)cc(c1)C[C@H](NC(=O)[C@H](C(C)C)N(C)C(=O)C1CCN(C)CC1)C(=O)N1CCC[C@H](N1)C(=O)OCC(C)(C)C2` [Compound A84], the pIC50 (Homo sapiens, NCI-H358, 120 h) was 6.00 to 7.00. For the compound `CCn1c(-c2ccccc2CN(C)C)c2c3cc(ccc31)-c1cc(O)cc(c1)C[C@H](NC(=O)[C@H](C(C)C)N(C)C(=O)c1nc(NC(=O)/C=C/CN(C)C)cs1)C(=O)N1CCC[C@H](N1)C(=O)OCC(C)(C)C2` [Compound A90], under “Homo sapiens, NCI-H358, 120 h”, the pIC50 was under 5.00.

Regarding `CCn1c(-c2cccnc2[C@H](C)OC)c2c3cc(ccc31)-c1cccc(c1)C[C@H](NC(=O)[C@H](C(C)C)N(C)C(=O)[C@H]1CCN(C(=O)CN(C)C)C1)C(=O)N1CCC[C@H](N1)C(=O)OCC(C)(C)C2` [Compound A96], the pIC50 (Homo sapiens, NCI-H358, 120 h) was over 8.00. In the case of `C=CC(=O)N1CC[C@H](C(=O)N(C)[C@H](C(=O)N[C@H]2Cc3cc(O)cc(c3)-c3cc4c(c(-c5ccccc5CCOC)n(CC)c4cn3)CC(C)(C)COC(=O)[C@@H]3CCCN(N3)C2=O)C(C)C)C1` [Compound A102], the pIC50 (Homo sapiens, NCI-H358, 120 h) was under 5.00.

For `C=CC(=O)N1CC[C@H](C(=O)N(C)[C@H](C(=O)N[C@H]2Cc3cc(O)cc(c3)-c3ccc4c(c3)c(c(-c3cnccc3[C@H](C)OC)n4CC)CC(C)(C)COC(=O)[C@@H]3CCCN(N3)C2=O)C(C)C)C1` [Compound A112], the pIC50 was over 8.00.

As to `C=CC(=O)N1CC[C@H](C(=O)N(C)[C@H](C(=O)N[C@H]2Cc3cccc(c3)-c3ccc4c(c3)c(c(-c3cnccc3[C@H](C)OC)n4CC)CC(C)(C)COC(=O)[C@@H]3CCCN(N3)C2=O)C(C)C)C1` [Compound A122], the pIC50 is under 5.00. With `C=CC(=O)N1CCN(C(=O)N(C)[C@H](C(=O)N[C@H]2Cc3cc(O)cc(c3)-c3ccc4c(c3)c(c(-c3ccccc3CCOC)n4CC)CC(C)(C)COC(=O)[C@@H]3CCCN(N3)C2=O)C(C)C)C[C@@H]1COC` [Compound A125], the pIC50 (Homo sapiens, NCI-H358, 120 h) is under 5.00.

On to `CCn1c(-c2ccccc2CN(C)C)c2c3cc(ccc31)-c1cc(O)cc(c1)C[C@H](NC(=O)[C@@H](C(C)C)N(C)C(=O)c1ncc(NC(=O)/C=C/CN(C)C)n1C)C(=O)N1CCC[C@H](N1)C(=O)OCC(C)(C)C2` [Compound A126], for which the pIC50 (Homo sapiens, NCI-H358, 120 h) was under 5.00. The same measure, in the same setting: with `CCn1c(-c2cnccc2[C@H](C)OC)c2c3cc(ccc31)-c1cccc(c1)C[C@H](NC(=O)[C@H](C1CCCC1)N(C)C(=O)[C@H]1CCN(C(=O)C#CCN(C)C)C1)C(=O)N1CCC[C@H](N1)C(=O)OCC(C)(C)C2` [Compound A133] the figure was over 8.00.
